Measured values as given in US20250215014A1, “KINASE INHIBITORS, PREPARATION METHODS AND USES THEREOF” (InventisBio Co., Ltd., priority 2022, published 2025).
pIC50: −log10 of the molar value.

How the values were obtained:
[1] = target: DGKa (Homo sapiens (Human), UniProt P23743); experiment: DGK ADP-Glo Kinase Assay (DGKa); type: biochemical; conditions: 10 nM DGKa, 15 uM ATP
Method: (§1) Luminescence was recorded using an Tecan SPARK microplate reader.

[2] = target: DGKz (Homo sapiens (Human), UniProt Q13574); experiment: DGK ADP-Glo Kinase Assay (DGKz); type: biochemical; conditions: 5 nM DGKz, 15 uM ATP
Sequence of DGKz (Q13574 whole entry): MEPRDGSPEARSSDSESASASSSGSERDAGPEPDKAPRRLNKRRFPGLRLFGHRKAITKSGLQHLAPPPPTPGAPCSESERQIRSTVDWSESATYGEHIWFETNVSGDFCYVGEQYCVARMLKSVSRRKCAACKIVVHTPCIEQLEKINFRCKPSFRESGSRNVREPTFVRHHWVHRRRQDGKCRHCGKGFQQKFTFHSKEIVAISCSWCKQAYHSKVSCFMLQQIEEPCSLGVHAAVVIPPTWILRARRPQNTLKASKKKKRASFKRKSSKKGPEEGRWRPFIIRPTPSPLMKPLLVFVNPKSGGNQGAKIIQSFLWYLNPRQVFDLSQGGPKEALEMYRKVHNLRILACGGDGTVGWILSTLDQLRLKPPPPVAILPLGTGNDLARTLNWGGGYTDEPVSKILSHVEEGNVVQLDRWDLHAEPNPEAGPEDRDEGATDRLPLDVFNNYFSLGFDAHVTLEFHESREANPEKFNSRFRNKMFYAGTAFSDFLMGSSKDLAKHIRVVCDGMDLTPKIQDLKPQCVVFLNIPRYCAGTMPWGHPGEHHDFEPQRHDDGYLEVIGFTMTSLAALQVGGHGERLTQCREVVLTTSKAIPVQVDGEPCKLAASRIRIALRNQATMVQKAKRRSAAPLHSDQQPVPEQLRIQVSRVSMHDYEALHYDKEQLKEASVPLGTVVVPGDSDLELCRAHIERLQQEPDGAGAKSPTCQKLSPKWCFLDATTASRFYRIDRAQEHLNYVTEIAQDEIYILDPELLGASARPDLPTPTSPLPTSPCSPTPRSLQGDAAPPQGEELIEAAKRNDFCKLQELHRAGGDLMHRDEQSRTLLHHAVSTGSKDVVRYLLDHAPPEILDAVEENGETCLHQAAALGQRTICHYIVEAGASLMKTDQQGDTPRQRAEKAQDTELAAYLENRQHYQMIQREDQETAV
Method: as §1

Sequence of DGKa (P23743 whole entry): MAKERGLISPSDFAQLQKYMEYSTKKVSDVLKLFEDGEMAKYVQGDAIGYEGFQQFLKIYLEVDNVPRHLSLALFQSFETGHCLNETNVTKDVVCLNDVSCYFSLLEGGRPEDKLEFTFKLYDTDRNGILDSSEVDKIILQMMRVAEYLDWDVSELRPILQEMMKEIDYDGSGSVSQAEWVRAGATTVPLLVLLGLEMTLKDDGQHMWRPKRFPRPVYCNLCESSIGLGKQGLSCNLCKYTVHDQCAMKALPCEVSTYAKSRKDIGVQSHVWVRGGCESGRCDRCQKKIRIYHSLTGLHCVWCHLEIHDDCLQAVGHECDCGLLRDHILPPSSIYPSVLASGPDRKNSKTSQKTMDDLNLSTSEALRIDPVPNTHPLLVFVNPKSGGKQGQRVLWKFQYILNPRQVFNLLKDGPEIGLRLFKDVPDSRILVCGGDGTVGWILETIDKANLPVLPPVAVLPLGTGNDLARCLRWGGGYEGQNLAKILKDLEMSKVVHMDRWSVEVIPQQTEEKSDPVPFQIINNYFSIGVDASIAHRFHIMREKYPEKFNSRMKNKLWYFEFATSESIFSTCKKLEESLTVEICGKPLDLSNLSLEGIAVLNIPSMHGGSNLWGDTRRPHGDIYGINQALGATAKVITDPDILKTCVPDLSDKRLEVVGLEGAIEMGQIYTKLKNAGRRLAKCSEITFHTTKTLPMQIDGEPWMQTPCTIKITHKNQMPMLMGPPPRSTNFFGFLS

Row | Structure (SMILES) | pIC50 [1] | pIC50 [2]
1 | CC[C@H]1CN([C@H](c2ccc(SC(F)(F)F)cc2)c2nc(C3CC3)no2)[C@H](CC)CN1c1nc(=O)n(C)c2ccc(C#N)nc12 (stereo in doubt) [Compound 70] | > 7.00 | > 7.00
2 | CC[C@H]1CN([C@H]2CCCCc3cc(C(F)(F)F)ccc32)[C@H](CC)CN1c1nc(=O)n(C)c2ccc(C#N)nc12 [Compound 44] | > 7.00 | 6.00 to 7.00
3 | CCC(c1ccc(C(F)(F)F)cc1)N1CCN(c2nc3nncn3c3ccc(C#N)nc23)C(CC)C1 (stereo not drawn) [Compound 102] | > 7.00 | < 6.00
4 | CCC(c1ccc(C23CC(C2)C3)nc1)N1C[C@H](CC)N(c2nc3nncn3c3ccc(C#N)nc23)C[C@H]1CC (stereo partly drawn) [Compound 104] | > 7.00 | > 7.00
5 | CC[C@H]1CN([C@H](CC)c2nc(C3CC3)no2)[C@H](CC)CN1c1nc2nncn2c2ccc(C#N)nc12 [Compound 120] | > 7.00 | 6.00 to 7.00
6 | CC[C@H]1CN([C@H](C)c2ccc(S(F)(F)(F)(F)F)cc2)[C@H](CC)CN1c1nc(=O)n(C)c2ccc(C#N)nc12 (stereo in doubt) [Compound 63] | > 7.00 | 6.00 to 7.00
7 | CC[C@H]1CN([C@H]2CCCCc3cc(C(F)(F)F)ccc32)[C@H](CC)CN1c1nc2nncn2c2ccc(C#N)nc12 [Compound 113] | > 7.00 | 6.00 to 7.00
8 | CC[C@@H]1CN2c3c(c(=O)n(C)c4ccc(C#N)nc34)OC[C@H]2CN1[C@@H](CC)c1ccc(C(F)(F)F)cc1 [Compound 107] | > 7.00 | 6.00 to 7.00
9 | CC[C@H]1CN(C(c2ccc(S(F)(F)(F)(F)F)cc2)C2CC2)[C@H](CC)CN1c1nc(=O)n(C)c2ccc(C#N)nc12 (single isomer, unassigned) [Compound 117] | > 7.00 | 6.00 to 7.00
10 | CC[C@@H]1CN2c3c(c(=O)n(C)c4ccc(C#N)nc34)OC[C@H]2CN1[C@H](CC)c1ccc(S(F)(F)(F)(F)F)cc1 [Compound 108] | > 7.00 | 6.00 to 7.00
11 | CC[C@H]1CN([C@H](c2ccc(S(F)(F)(F)(F)F)cc2)c2nc(C3CC3)cs2)[C@H](CC)CN1c1nc(=O)n(C)c2ccc(C#N)nc12 [Compound 98] | > 7.00 | > 7.00
12 | CC[C@@H]1CN2c3c(c(=O)n(C)c4ccc(C#N)nc34)OC[C@@H]2CN1[C@@H](CC)c1ccc(SC(F)(F)F)cc1 [Compound 123] | > 7.00 | 6.00 to 7.00
13 | Cc1ccc2oc(C3CCN(c4nc(=O)n(C)c5cc(O[C@H]6CCOC6)c(Cl)cc45)CC3)nc2c1 [Compound 33] | > 7.00 | > 7.00
14 | CC[C@@H]1CN(c2nc(=O)n(C)c3ccc(C#N)nc23)[C@@H](C)CN1[C@@H](CC)c1ccc(S(F)(F)(F)(F)F)cc1 (stereo in doubt) [Compound 60] | > 7.00 | > 7.00
15 | Cn1c(=O)nc(N2CCC3(CCN(c4ccc(OC(F)(F)F)cc4)C3)CC2)c2nc(C#N)ccc21 [Compound 8] | 6.00 to 7.00 | 6.00 to 7.00
16 | CC[C@H]1C[C@]2(CCN1c1nc(=O)n(C)c3ccc(C#N)nc13)CC(c1ccc(OC(F)(F)F)cc1)=NO2 (stereo in doubt) [Compound 74] | > 7.00 | < 6.00
17 | CC[C@H]1CN([C@@H](CC)c2ccc(SC(F)(F)F)cc2)[C@H](CC)CN1c1nc2nncn2c2ccc(C#N)nc12 (single isomer, unassigned) [Compound 69] | > 7.00 | 6.00 to 7.00

Row | Structure (SMILES) | pIC50 [1] | pIC50 [2]
18 | CC[C@@H]1CN2c3c(c(=O)n(C)c4ccc(C#N)nc34)OC[C@@H]2CN1[C@@H](CC)c1ccc(C(F)(F)F)cc1 [Compound 121] | > 7.00 | < 6.00
19 | CC[C@H]1C[C@H](Oc2ccc(OC(F)(F)F)cc2)CCN1c1nc(=O)n(C)c2ccc(C#N)nc12 (stereo in doubt) [Compound 18] | > 7.00 | 6.00 to 7.00
20 | CC[C@H]1CN([C@H](c2ccc(SC(F)(F)F)cc2)c2nc(C3CC3)cs2)[C@H](CC)CN1c1nc(=O)n(C)c2ccc(C#N)nc12 [Compound 57] | > 7.00 | 6.00 to 7.00
21 | CC[C@H]1CN([C@@H](CC)c2cccc(C(F)(F)F)c2)[C@H](CC)CN1c1nc2nncn2c2ccc(C#N)nc12 (stereo in doubt) [Compound 105] | > 7.00 | > 7.00
22 | Cn1c(=O)nc(N2CCC3(CC2)COC(c2ccc(OC(F)(F)F)cc2)=N3)c2nc(Cl)ccc21 [Compound 37] | > 7.00 | 6.00 to 7.00
23 | CC[C@H]1C[C@@H](c2nc3cc(C)ccc3o2)CCN1c1nc(=O)n(C)c2cc(O[C@@H]3CCOC3)c(Cl)cc12 [Compound 94] | 6.00 to 7.00 | < 6.00
24 | CC[C@@H]1CN(c2nc3nncn3c3ccc(C#N)nc23)[C@@H](C)CN1[C@@H](CC)c1ccc(C(F)(F)F)cc1 (single isomer, unassigned) [Compound 81] | > 7.00 | > 7.00
25 | CC[C@@H]1CN(c2nc(=O)n(C)c3ccc(C#N)nc23)[C@@H](C)CN1[C@H](c1ccc(F)cc1)c1ccc(SC(F)(F)F)cn1 [Compound 73] | > 7.00 | > 7.00
26 | CC[C@H]1CN([C@@H](CC)c2nc(C3CC3)no2)[C@H](CC)CN1c1nc2nncn2c2ccc(C#N)nc12 [Compound 119] | > 7.00 | > 7.00
27 | CC[C@@H]1CN(c2nc3nncn3c3ccc(C#N)nc23)[C@@H](CC)CN1C(=O)Cc1ccc(C(F)(F)F)cc1 [Compound 85] | > 7.00 | 6.00 to 7.00
28 | CC[C@@H]1CN(c2nc3nncn3c3ccc(C#N)nc23)[C@@H](C)CN1[C@H](CC)c1ccc(C(F)(F)F)cc1 (stereo in doubt) [Compound 82] | > 7.00 | 6.00 to 7.00
29 | CC[C@@H]1C[C@@]2(CCN1c1nc(=O)n(C)c3ccc(C#N)nc13)CC(c1ccc(OC(F)(F)F)cc1)=NO2 (stereo in doubt) [Compound 75] | 6.00 to 7.00 | 6.00 to 7.00
30 | CC[C@@H]1CN(c2nc(=O)n(C)c3ccc(C#N)nc23)[C@@H](C)CN1C(c1ccc(S(F)(F)(F)(F)F)cc1)c1nc(C2CC2)no1 (stereo partly drawn) [Compound 65] | > 7.00 | > 7.00
31 | N#Cc1cc2c3c(n1)c(N1CCC4(CC1)CC(c1ccc(OC(F)(F)F)cc1)=NO4)nc(=O)n3CCO2 [Compound 59] | > 7.00 | 6.00 to 7.00
32 | N#Cc1ccc2c(n1)c(N1CCC3(CC1)CC(c1ccc(C(F)(F)F)cc1)=NO3)nc1nncn12 [Compound 53] | > 7.00 | 6.00 to 7.00
33 | CC[C@H]1CN([C@H](C)c2ccc(SC(F)(F)F)cc2)[C@H](CC)CN1c1nc2nncn2c2ccc(C#N)nc12 (stereo in doubt) [Compound 52] | > 7.00 | 6.00 to 7.00
34 | CC[C@H]1CN([C@H](CC)c2ccc(OC)cc2F)[C@H](CC)CN1c1nc2nncn2c2ccc(C#N)nc12 (stereo in doubt) [Compound 116] | > 7.00 | 6.00 to 7.00

The next lines start with the values.

Row | pIC50 [1] | pIC50 [2] | Structure (SMILES)
35 | > 7.00 | < 6.00 | Cn1c(=O)c(C(N)=O)c(N2CCC3(CN(c4ccc(OC(F)(F)F)cc4)C3)C2)c2nc(C#N)ccc21 [Compound 15]
36 | > 7.00 | 6.00 to 7.00 | CC[C@@H]1CN(c2nc3nncn3c3ccc(C#N)nc23)[C@@H](CC)CN1C(=O)Nc1ccc(C(F)(F)F)cc1 [Compound 95]
37 | > 7.00 | > 7.00 | CC[C@H]1CN([C@@H](CC)c2ccc(C(F)(F)F)nc2)[C@H](CC)CN1c1nc2nncn2c2ccc(C#N)nc12 (stereo in doubt) [Compound 111]
38 | > 7.00 | > 7.00 | CC[C@@H]1CN(c2nc3nncn3c3ccc(C#N)nc23)[C@@H](C)CN1[C@@H](CC)c1ccc(SC(F)(F)F)cc1 (stereo in doubt) [Compound 66]
39 | > 7.00 | 6.00 to 7.00 | Cn1c(=O)nc(N2CCCc3c(C#CC4CC4)cccc32)c2nc(C#N)ccc21 [Compound 42]
40 | > 7.00 | > 7.00 | CC[C@H]1CN([C@@H](CC)c2ccc(S(F)(F)(F)(F)F)cc2)[C@H](CC)CN1c1nc2nncn2c2ccc(C#N)nc12 (stereo in doubt) [Compound 86]
41 | > 7.00 | > 7.00 | CC[C@H]1CN(C(CO)c2ccc(S(F)(F)(F)(F)F)cc2)[C@H](CC)CN1c1nc(=O)n(C)c2ccc(C#N)nc12 (stereo partly drawn) [Compound 77]
42 | 6.00 to 7.00 | > 7.00 | CC[C@@H]1C[C@H](c2nc3cc(C)ccc3o2)CCN1c1nc(=O)n(C)c2cc(O[C@@H]3CCOC3)c(Cl)cc12 [Compound 92]
43 | > 7.00 | < 6.00 | Cn1c(=O)nc(N2CCCc3c(C#CC4CC4)cccc32)c2nc(C#N)ccc21 [Compound 39]
44 | 6.00 to 7.00 | 6.00 to 7.00 | CC[C@H]1CN([C@H](CC)c2ccc(S(F)(F)(F)(F)F)cc2)[C@H](CC)CN1c1nc(=O)n2c3c(cc(C#N)nc13)OCC2 (stereo in doubt) [Compound 79]
45 | 6.00 to 7.00 | > 7.00 | CC[C@@H]1C[C@H](Oc2ccc(OC(F)(F)F)cc2)CCN1c1nc(=O)n(C)c2ccc(C#N)nc12 [Compound 16]
46 | 6.00 to 7.00 | 6.00 to 7.00 | CC[C@@H]1CN(c2nc(=O)n(C)c3ccc(C#N)nc23)[C@@H](C)CN1[C@H](CC)c1ccc(S(F)(F)(F)(F)F)cc1 (stereo in doubt) [Compound 61]
47 | > 7.00 | < 6.00 | Cc1ccc2oc(C3CCN(c4nc(=O)n(C)c5cc(O[C@@H]6CCOC6)c(Cl)cc45)CC3)nc2c1 [Compound 32]
48 | > 7.00 | > 7.00 | CC[C@@H]1CN(c2nc3nncn3c3ccc(C#N)nc23)[C@@H](C)CN1[C@@H](CC)c1ccc(S(F)(F)(F)(F)F)cc1 (stereo in doubt) [Compound 80]
49 | > 7.00 | 6.00 to 7.00 | CC[C@H]1CN([C@H](C)c2ccc(S(F)(F)(F)(F)F)cc2)[C@H](CC)CN1c1nc2nncn2c2ccc(C#N)nc12 (stereo in doubt) [Compound 89]
50 | > 7.00 | > 7.00 | CC[C@H]1CN([C@@H](CC)c2ccc(C(F)(F)F)cc2)[C@H](CC)CN1c1nc2nncn2c2ccc(C#N)nc12 (single isomer, unassigned) [Compound 34]
51 | > 7.00 | > 7.00 | Cn1c(=O)nc(N2CCC3(CC2)CC(c2cccc(C(F)(F)F)c2)=NO3)c2nc(C#N)ccc21 [Compound 47]
